From US10414774B2, “Compound useful for altering the levels of bile acids for the treatment of diabetes and cardiometabolc disease” (Merck Sharp & Dohme Corp., priority 2016, dated 2019) come the findings set out here.

The target of the assay is T1, Human CYP8B1 (Homo sapiens, UniProt Q9UNU6).
T1 sequence (Q9UNU6 1-501): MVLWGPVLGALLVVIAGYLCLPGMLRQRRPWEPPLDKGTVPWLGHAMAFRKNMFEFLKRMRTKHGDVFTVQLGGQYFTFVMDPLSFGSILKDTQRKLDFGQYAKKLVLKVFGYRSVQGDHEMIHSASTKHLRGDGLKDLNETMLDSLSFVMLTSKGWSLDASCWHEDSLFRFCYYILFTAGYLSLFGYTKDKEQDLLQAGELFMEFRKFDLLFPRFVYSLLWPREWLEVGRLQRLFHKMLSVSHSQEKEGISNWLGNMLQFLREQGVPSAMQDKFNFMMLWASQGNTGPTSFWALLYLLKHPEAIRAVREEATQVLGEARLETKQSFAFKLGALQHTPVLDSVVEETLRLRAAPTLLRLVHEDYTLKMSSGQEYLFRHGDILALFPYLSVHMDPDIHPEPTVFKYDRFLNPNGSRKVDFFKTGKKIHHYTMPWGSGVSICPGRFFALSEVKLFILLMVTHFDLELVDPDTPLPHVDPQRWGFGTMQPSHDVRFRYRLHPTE
In words: Human CYP8B1 Liver Microsome Assay. Particulars: Human CYP8B1 IC50, human liver microsomes; substrate 7a-hydroxy-4-cholesten-3-one, NADPH; RapidFire MS detection of 7α,12α-dihydroxy-4-cholesten-3-one.

`Cc1nc2ccc(Cl)cc2c(N2CC[C@H](C(=O)N3CCn4cccc4C3)[C@H](C)C2)c1C#N` [Example 91, 6-chloro-4-[(3S,4S)-4-(3,4-dihydropyrrolo[1,2-a]pyrazin-2(1H)-ylcarbonyl)-3-methylpiperidin-1-yl]-2-methylquinoline-3-carbonitrile] returned an IC50 of 5.8 nM.
The result for `C[C@@H]1CN(c2c(C#N)cnc3cc(-c4ccccc4)ccc23)CC[C@@H]1C(=O)N1CCn2c(nnc2C(F)(F)F)C1` [Example 90, 4-((3S,4S)-3-methyl-4-(3-(trifluoromethyl)-5,6,7,8-tetrahydro-[1,2,4]triazolo[4,3-a]pyrazine-7-carbonyl)piperidin-1-yl)-7-phenylquinoline-3-carbonitrile] reads 0.2 nM; that for `COC(=O)c1nc2ccc(Cl)cc2c(N2CC[C@H](C(=O)N3CCn4c(nnc4C(F)(F)F)C3)[C@H](C)C2)c1C#N` [Example 59, methyl 6-chloro-3-cyano-4-[(3S,4S)-3-methyl-4-{[3-(trifluoromethyl)-5,6-dihydro[1,2,4]triazolo[4,3-a]pyrazin-7(8H)-yl]carbonyl}piperidin-1-yl]quinoline-2-carboxylate], 18 nM; that for `C[C@@H]1CN(c2c(C#N)cnc3nc(C(F)(F)F)ccc23)CC[C@@H]1C(=O)N1CCn2c(nnc2C(F)(F)F)C1` [Example 21, 4-[(3S,4S)-3-methyl-4-{[3-(trifluoromethyl)-5,6-dihydro[1,2,4]triazolo[4,3-a]pyrazin-7(8H)-yl]carbonyl}piperidin-1-yl]-7-(trifluoromethyl)-1,8-naphthyridine-3-carbonitrile], 4.81 nM.
In the case of `C[C@@H]1CN(c2c(C#N)cnc3c(F)c(Cl)ccc23)CC[C@@H]1C(=O)N1CCn2c(nnc2C2CC2)C1` [Example 66, 7-chloro-4-{(3S,4S)-4-[(3-cyclopropyl-5,6-dihydro[1,2,4]triazolo[4,3-a]pyrazin-7(8H)-yl)carbonyl]-3-methylpiperidin-1-yl}-8-fluoroquinoline-3-carbonitrile] it was 0.51 nM; in that of `C[C@@H]1CN(c2c(C#N)cnc3cc(C(F)(F)F)ccc23)CC[C@@H]1C(=O)N1CCn2c(nnc2C(F)(F)F)C1` [Example 16, 4-[(3S,4S)-3-methyl-4-{[3-(trifluoromethyl)-5,6-dihydro[1,2,4]triazolo[4,3-a]pyrazin-7(8H)-yl]carbonyl}piperidin-1-yl]-7-(trifluoromethyl)quinoline-3-carbonitrile], 0.38 nM.
In the case of `CC1(C(=O)N2CCn3c(nnc3C(F)(F)F)C2)CCN(c2c(C#N)cnc3ccc(Cl)cc23)CC1` [Example 121, 6-chloro-4-(4-methyl-4-{[3-(trifluoromethyl)-5,6-dihydro[1,2,4]triazolo[4,3-a]pyrazin-7(8H)-yl]carbonyl}piperidin-1-yl)quinoline-3-carbonitrile] it was 14 nM.
The compound `CO[C@H]1CN(c2c(C#N)cnc3ccc(Cl)cc23)CCC1C(=O)N1CCn2c(nnc2C(F)(F)F)C1` (stereo in doubt) [Example 72d, 6-chloro-4-[(3R,4R)-3-methoxy-4-{[3-(trifluoromethyl)-5,6-dihydro[1,2,4]triazolo[4,3-a]pyrazin-7(8H)-yl]carbonyl}piperidin-1-yl]quinoline-3-carbonitrile] returned an IC50 of 6140 nM.
In the case of `CC1CN(c2c(C#N)cnc3ccc(Cl)cc23)CCC1C(=O)N1CCn2c(nnc2C(F)(F)F)C1` (stereo not shown) [Example 116, 6-chloro-4-(3-methyl-4-(3-(trifluoromethyl)-5,6,7,8-tetrahydro-[1,2,4]triazolo[4,3-a]pyrazine-7-carbonyl)piperidin-1-yl)quinoline-3-carbonitrile] it was 1.4 nM; in that of `CC[C@H]1CN(c2c(C#N)cnc3ccc(Cl)cc23)CC[C@H]1C(=O)N1CCn2c(nnc2C(F)(F)F)C1` [Example 75a, 6-chloro-4-[(3R,4R)-3-ethyl-4-{[3-(trifluoromethyl)-5,6-dihydro[1,2,4]triazolo[4,3-a]pyrazin-7(8H)-yl]carbonyl}piperidin-1-yl]quinoline-3-carbonitrile], 307 nM.
